# Earlier results, collected in patent US20160361357A1, “STABLE HIGH CONCENTRATION STRONTIUM COMPOUNDS AND FORMULATIONS FOR TOPICAL APPLICATION” (Cosmederm Bioscience, Inc., priority 2015, published 2016).
# Legend:
# [1] = biological target: synaptotagmin-1 (Homo sapiens, UniProt P21579); settings: strontium substitutes for calcium; response to TCN activation
# [2] = system: TCN; settings: strontium mixed with 70% glycolic acid, pH 0.6 chemical peel
# Chain of synaptotagmin-1 (P21579 whole entry, species assumed): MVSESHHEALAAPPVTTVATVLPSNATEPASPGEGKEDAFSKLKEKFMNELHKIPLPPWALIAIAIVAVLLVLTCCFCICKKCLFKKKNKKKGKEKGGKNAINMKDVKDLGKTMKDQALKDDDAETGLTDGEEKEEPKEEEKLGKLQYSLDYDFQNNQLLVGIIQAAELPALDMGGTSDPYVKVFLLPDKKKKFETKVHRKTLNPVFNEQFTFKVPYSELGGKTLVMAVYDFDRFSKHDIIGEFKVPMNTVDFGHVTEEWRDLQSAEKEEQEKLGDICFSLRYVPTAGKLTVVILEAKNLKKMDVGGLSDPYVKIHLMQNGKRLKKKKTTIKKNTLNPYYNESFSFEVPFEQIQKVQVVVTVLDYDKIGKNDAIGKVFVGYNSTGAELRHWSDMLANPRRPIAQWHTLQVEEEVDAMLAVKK
structure (smiles),measurement,setting,value
[Sr+2] [strontium],reduction of amplitude of synchronous neurotransmitter release,[1],more than 90%
same,burning pain and stinging suppressed,[2],≥ 80%
